Measurements: patent US20240336594A1, “SIX-MEMBERED ARYL OR HETEROARYL AMIDES, AND COMPOSITION AND USE THEREOF” (BETTA PHARMACEUTICALS CO., LTD, priority 2021, published 2024)
Blank lines part the entries; values can stand above or below the compound they belong to.

Tests used:
MALT1 = molecular target: T1, MALT1 (Homo sapiens, UniProt Q9UDY8); assay: MALT1 protease inhibition assay (AMC-labeled peptide, fluorescence 360/460); type: biochemical; conditions: substrate Ac-LRSR-AMC, 15 min preincubation, 90 min at 25° C.
T1 sequence (Q9UDY8 1-824): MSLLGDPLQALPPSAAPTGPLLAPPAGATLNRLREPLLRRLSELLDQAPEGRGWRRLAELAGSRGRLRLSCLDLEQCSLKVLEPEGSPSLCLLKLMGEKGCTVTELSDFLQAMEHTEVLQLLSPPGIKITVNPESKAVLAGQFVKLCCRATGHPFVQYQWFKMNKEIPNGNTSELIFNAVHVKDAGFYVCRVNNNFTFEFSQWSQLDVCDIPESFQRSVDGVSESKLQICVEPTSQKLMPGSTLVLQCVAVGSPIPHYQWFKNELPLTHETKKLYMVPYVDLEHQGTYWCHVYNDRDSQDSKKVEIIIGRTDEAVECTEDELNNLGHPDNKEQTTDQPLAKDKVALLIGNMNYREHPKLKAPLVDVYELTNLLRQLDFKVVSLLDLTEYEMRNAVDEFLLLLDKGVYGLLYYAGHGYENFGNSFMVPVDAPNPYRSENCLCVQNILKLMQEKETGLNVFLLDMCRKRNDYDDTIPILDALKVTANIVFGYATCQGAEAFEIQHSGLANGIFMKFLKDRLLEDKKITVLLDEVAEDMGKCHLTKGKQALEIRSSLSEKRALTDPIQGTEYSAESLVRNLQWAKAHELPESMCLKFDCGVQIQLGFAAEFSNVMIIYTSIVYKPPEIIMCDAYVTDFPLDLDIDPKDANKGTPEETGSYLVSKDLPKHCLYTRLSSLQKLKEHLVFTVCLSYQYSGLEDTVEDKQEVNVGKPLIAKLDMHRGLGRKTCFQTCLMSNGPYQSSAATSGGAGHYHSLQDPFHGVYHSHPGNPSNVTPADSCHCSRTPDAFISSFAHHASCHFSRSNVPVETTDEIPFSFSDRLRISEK
Summary of the method: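 Recombinant MALT1 preincubated with test compounds (10-point 1:3 dilutions in DMSO, duplicates) for 15 min at 25 °C in citrate-containing protease buffer with DTT, then AMC-labeled peptide added for 90 min at 25 °C. Inhibition normalized to no-compound (max) and no-enzyme (min) wells; IC50 from curve fit.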

[1] = tested on: IL-2 secretion of Jurkat cells (PMA/Ionomycin inducing); assay: ELISA method to detect IL-2 secretion induced by PMA/Ionomycin; type: cell-based; conditions: Homo sapiens, 20 h
Procedure: 12.5*10^3 Jurkat cells were seeded on a 96-well plate and incubated with various concentrations of compound solution for 30 min. Then, 500×PMA/Ionomycin stimulating factor was diluted with culture medium and added to the cell plate. […] The final concentrations of the compounds were 10000, 3333.3, 1111.1, 370.4, 123.5, 41.2, 13.7, 4.6, 1.5, 0 nM (The final concentration of DMSO is 0.5%). After incubation for 20 h, the supernatant was collected via centrifugation. The final IL-2 concentration was detected by ELISA method (IL-2 Duoset, R&D Systems, DY202). The signal value of each sample at a wavelength of 450 nm was collected by EnVision multifunctional microplate reader and converted to the IL-2 concentration via the ELISACalc.exe software. The IL-2 secretion inhibitory activity IC50 was fitted by GraphPad Prism software. The cell viability was tested simultaneously using the Cell-Titer Glo kit.
The compounds of the present invention show strong inhibitory effect on IL-2 secretion of Jurkat cells (PMA/Ionomycin inducing).

IC50 (MALT1): ≤ 10 nM
IC50 [1]: 77 nM
SMILES: O=C(Nc1cnc(-n2nccn2)c(Cl)c1)c1cc(F)c(-c2ccc(F)cc2CO)cc1Cl [Example A281]

IC50 (MALT1): ≤ 10 nM
IC50 [1]: 66 nM
SMILES: C#Cc1cncc(N)c1-c1cc(Cl)c(C(=O)Nc2cnc(-n3nccn3)c(C(F)(F)F)c2)cc1F [Example A410, N-(6-(2H-1,2,3-triazol-2-yl)-5-(trifluoromethyl)pyridin-3-yl)-4-(3-amino-5-ethynylpyridin-4-yl)-2-chloro-5-fluorobenzamide]

IC50 (MALT1): ≤ 10 nM
IC50 [1]: 17 nM
SMILES: C#Cc1cncc(N)c1-c1cc(Cl)c(C(=O)Nc2cnc(-n3nccn3)c(Cl)c2)cc1F [Example A411, 4-(3-amino-5-ethynylpyridin-4-yl)-2-chloro-N-(5-chloro-5-(2H-1,2,3-triazol-2-yl)pyridin-3-yl)-5-fluorobenzamide]

IC50 (MALT1): ≤ 10 nM
IC50 [1]: 32 nM
SMILES: C#Cc1cc(F)cc(N)c1-c1cc(Cl)c(C(=O)Nc2cnc(-n3nccn3)c(Cl)c2)cc1F [Example A412]

IC50 (MALT1): ≤ 10 nM
IC50 [1]: 77 nM
SMILES: C#Cc1cnccc1-c1cc(Cl)c(C(=O)Nc2cnc(C(=O)NC)c(Cl)c2)cc1F [Example A426, 3-chloro-5-(2-chloro-4-(3-ethynylpyridin-4-yl)-5-fluorobenzamido)-N-methylpicolinamide]

IC50 (MALT1): ≤ 10 nM
IC50 [1]: 77 nM
SMILES: C#Cc1cnccc1-c1cc(Cl)c(C(=O)Nc2cnc(C(=O)NCC#N)c(Cl)c2)cc1F [Example A427, 3-chloro-5-(2-chloro-4-(3-ethynylpyridin-4-yl)-5-fluorobenzamido)-N-(cyanomethyl)picolinamide]

Second part, the compound before the results:

SMILES: Nc1ccccc1-c1cc(F)c(C(=O)Nc2cnc(-n3nccn3)c(Cl)c2)cc1Cl [Example A119, 2′-amino-2-chloro-N-(5-chloro-6-(2H-1,2,3-triazol-2-yl)pyridin-3-yl)-5-fluoro-[1,1′-biphenyl]-4-carboxamide]
IC50 (MALT1): ≤ 10 nM
IC50 [1]: 466 nM

SMILES: Nc1cc(F)ccc1-c1cc(F)c(C(=O)Nc2cnc(-n3nccn3)c(Cl)c2)cc1Cl [Example A120, 2′-amino-2-chloro-N-(5-chloro-6-(2H-1,2,3-triazol-2-yl)pyridin-3-yl)-4′,5-difluoro-[1,1′-biphenyl]-4-carboxamide]
IC50 (MALT1): ≤ 10 nM
IC50 [1]: 57 nM

SMILES: Nc1cc(F)ccc1-c1cc(Cl)c(C(=O)Nc2cnc(-n3nccn3)c(Cl)c2)cc1F [Example A121, 2′-amino-5-chloro-N-(5-chloro-6-(2H-1,2,3-triazol-2-yl)pyridin-3-yl)-2,4′-difluoro-[1,1′-biphenyl]-4-carboxamide]
IC50 (MALT1): ≤ 10 nM
IC50 [1]: 43 nM

SMILES: Nc1cc(F)ccc1-c1cc(Cl)c(C(=O)Nc2cnc(-n3nccn3)c(C(F)(F)F)c2)cc1F [Example A122, N-(6-(2H-1,2,3-triazol-2-yl)-5-(trifluoromethyl)pyridin-3-yl)-2′-amino-5-chloro-2,4′-difluoro-[1,1′-biphenyl]-4-carboxamide]
IC50 (MALT1): ≤ 10 nM
IC50 [1]: 121 nM

SMILES: Nc1cc(F)ccc1-c1cc(F)c(C(=O)Nc2cnc(-n3nccn3)c(C(F)(F)F)c2)cc1Cl [Example A123, N-(6-(2H-1,2,3-triazol-2-yl)-5-(trifluoromethyl)pyridin-3-yl)-2′-amino-2-chloro-4′,5-difluoro-[1,1′-biphenyl]-4-carboxamide]
IC50 (MALT1): ≤ 10 nM
IC50 [1]: 58 nM

SMILES: Nc1cnccc1-c1cc(F)c(C(=O)Nc2cnc(-n3nccn3)c(Cl)c2)cc1Cl [Example A124]
IC50 (MALT1): ≤ 10 nM
IC50 [1]: 252 nM

SMILES: Cc1cc(-c2ccncc2Cl)c(F)cc1C(=O)Nc1cnc(-n2nccn2)c(Cl)c1 [Example A126]
IC50 (MALT1): ≤ 10 nM
IC50 [1]: 136 nM

SMILES: CNc1cc(F)ccc1-c1cc(F)c(C(=O)Nc2cnc(-n3nccn3)c(Cl)c2)cc1Cl [Example A127, 2-chloro-N-(5-chloro-6-(2H-1,2,3-triazol-2-yl)pyridin-3-yl)-4′,5-difluoro-2′-(methylamino)-[1,1′-biphenyl]-4-carboxamide]
IC50 (MALT1): ≤ 10 nM
IC50 [1]: 444 nM
